Here are results for 23 molecules from US7998961B2, “Hydantoin derivatives useful as antibacterial agents” (Schering Corporation, priority 2006, dated 2011).

For the assay, the target named is T1, LpxC enzyme (Escherichia coli, UniProt P0A725).
T1 sequence (P0A725 1-305): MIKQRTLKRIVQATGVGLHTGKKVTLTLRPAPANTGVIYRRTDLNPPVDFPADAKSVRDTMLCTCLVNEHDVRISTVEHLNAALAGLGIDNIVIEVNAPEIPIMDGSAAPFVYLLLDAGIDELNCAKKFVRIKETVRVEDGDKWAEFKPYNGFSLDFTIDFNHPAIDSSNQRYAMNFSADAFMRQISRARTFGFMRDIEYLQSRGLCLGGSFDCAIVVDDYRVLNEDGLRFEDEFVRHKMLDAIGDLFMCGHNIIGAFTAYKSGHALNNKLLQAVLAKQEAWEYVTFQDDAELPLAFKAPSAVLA
Kind of assay: standard LpxC enzyme assay (RapidFire high-throughput mass spectrometry). The assay is classed as biochemical. The following applies: for inhibition at 25 µg/mL: compound at 25 ug/mL; for IC50: LpxC inhibitory activity. The method, then:
The standard LpxC assay consists of 0.2 nM LpxC enzyme, 1.0 μM UDP-3-O—(R-3-hydroxymyristoyl)-N-acetylglucosamine, and test compound, in assay buffer and 2% DMSO. Assay buffer is comprised of 25 mM HEPES, pH 7.3, 150 mM NaCl, 2.0 mM DTT, and 0.01% BSA. The enzyme reaction is carried out in a 96-well assay plate, in a final volume of 102 μL. Solutions of test compounds are prepared in 100% DMSO. Reaction additions, in order, are (1) 2.0 μL compound solution, (2) 80 μL of assay buffer, (3) 10 μL of 10 μM UDP-3-O—(R-3-hydroxymyristoyl)-N-acetylglucosamine (in assay buffer) and, (4) 10 μL of LpxC enzyme (20 nM in assay buffer) to initiate the reaction. In positive control reactions, addition (1) has 2.0 μL of 100% DMSO (without compound); these reactions are used as the total signal (TSB) value. Reactions are incubated at room temperature for 60 minutes when 10 μL of 1 N HCl is added to stop the reaction. The plate is shaken by hand for 10 seconds to ensure complete quenching. Assay plates are sealed with foil tape, and stored at −80° C. for 24-48 hr prior to analysis.
The concentrations of substrate and product in the reaction mixtures are determined with BioTrove's proprietary RapidFire™ high-throughput mass spectrometry (HTMS). Assay mixtures are partially purified with reverse phase chromatography, where they are washed with water containing 5 mM ammonium formate and eluted onto the mass spectrometer in 80% acetonitrile, 20% water, and 5 mM ammonium formate. The mass spectrometry peak areas of the substrate and product are measured to determine the concentration of these analytes. The assay signal is the percentage of substrate that is converted to product. Percent inhibition, % I, in test samples is determined from the following equation: […]

The mark [1] stands for this setting: read-out: LpxC enzyme assay rating (% inhibition at indicated concentrations of 100 and 25 ug/mL): 25.
The mark [2] stands for this setting: compound at 100 ug/mL, read-out: LpxC enzyme assay rating (% inhibition at indicated concentrations of 100 and 25 ug/mL): 100.
The mark [3] stands for this setting: read-out: Numerical LpxC inhibitory activity (% inhibition): 100.

The structures appear in SMILES notation. Where two headings read alike, the source gives them in different places.

Turning to `CC1(CC(=O)Nc2ccccc2C#Cc2ccccc2)NC(=O)NC1=O` (centres unmarked) [Compound 32], the inhibition at 25 µg/mL under setting [1] was below 10%.

For `CC1(CC(=O)Nc2ccc(C#Cc3ccccc3)cc2)NC(=O)NC1=O` (centres unmarked) [Compound 33], for the setting “read-out: IC50 rating”, the IC50 was above 5 µM.

Turning to `CC1(CC(=O)NCCc2ccc(C#Cc3ccccc3)cc2)NC(=O)NC1=O` (centres unmarked) [Compound 34], the inhibition at 25 µg/mL was 10 to 30% under setting [1] and 30% (read-out: Numerical LpxC inhibitory activity (% inhibition): 25).

Regarding `CC1(CC(=O)NCCc2cccc(C#Cc3ccccc3)c2)NC(=O)NC1=O` (centres unmarked) [Compound 35], under setting [1], the inhibition at 25 µg/mL was below 10%.

Consider `CC1(CC(=O)N2CCC(c3ccc(C#Cc4ccccc4)cc3)CC2)NC(=O)NC1=O` (centres unmarked) [Compound 36], for which the IC50 is 0.25 to 1 µM (read-out: IC50 rating) and 0.6 µM (read-out: IC50 values).

In the case of `CC1(CC(=O)N2CCCC(c3ccc(C#Cc4ccccc4)cc3)C2)NC(=O)NC1=O` (centres unmarked) [Compound 37], the half-maximal inhibitory concentration (IC50) (read-out: IC50 rating) lay within 0.25 to 1 µM.

Take `CC1(CC(=O)N2CCC(O)(c3ccc(C#Cc4ccccc4)cc3)CC2)NC(=O)NC1=O` (centres unmarked) [Compound 38]: the IC50 (read-out: IC50 rating) fell in the range of 1 to 5 µM.

On to `CC1(CC(=O)N2CCN(c3ccc(C#Cc4ccccc4)cc3)CC2)NC(=O)NC1=O` (centres unmarked) [Compound 39], for which the IC50 (read-out: IC50 rating) is 0.25 to 1 µM and the IC50 (read-out: IC50 values) came to 0.5 µM.

As to `C[C@@H](NC(=O)CC1(C)NC(=O)NC1=O)c1ccc(C#Cc2ccccc2)cc1` (some centres unmarked) [Compound 40], for the setting “read-out: IC50 rating”, the IC50 was above 5 µM.

In the case of `O=C1NC(=O)C(CC(=O)N2CCC(c3ccc(C#Cc4ccccc4)cc3)CC2)N1` (centres unmarked) [Compound 41], the inhibition at 100 µg/mL was above 30% under setting [2] and 60% under setting [3].

Take `O=C1NC(=O)C(CC(=O)N2CCN(c3ccc(C#Cc4ccccc4)cc3)CC2)N1` (centres unmarked) [Compound 42]: the inhibition at 100 µg/mL under setting [2] was above 30%.

Consider `CCC1(CC(=O)N2CCC(c3ccc(C#Cc4ccccc4)cc3)CC2)NC(=O)NC1=O` (centres unmarked) [Compound 43], for which the IC50 is, setting by setting: (read-out: IC50 rating) 0.25 to 1 µM; (read-out: IC50 values) 0.7 µM.

In the case of `O=C1NC(=O)C(CC(=O)N2CCC(c3ccc(Br)cc3)CC2)N1` (centres unmarked) [Compound 45], the inhibition at 100 µg/mL under setting [2] is above 30% and the inhibition at 100 µg/mL under setting [3] turned out to be 68%.

On to `CC1(CC(=O)N2CCC(c3ccc(Br)cc3)CC2)NC(=O)NC1=O` (centres unmarked) [Compound 46], for which the inhibition at 100 µg/mL under setting [2] is above 30%.

Regarding `CCC1(CC(=O)N2CCC(c3ccc(Br)cc3)CC2)NC(=O)NC1=O` (centres unmarked) [Compound 47], the inhibition at 100 µg/mL under setting [2] is above 30%.

As for `C[C@@H](O)[C@H](NC(=O)c1ccc(C#Cc2ccccc2)cc1)C1NC(=O)NC1=O` (some centres unmarked) [Compound 64], the IC50 (read-out: IC50 rating) is above 5 µM.

Regarding `C[C@H](O)[C@@H](NC(=O)c1ccc(C#Cc2ccccc2)cc1)C1NC(=O)NC1=O` (some centres unmarked) [Compound 65], for the setting “read-out: IC50 rating”, the IC50 is above 5 µM.

As to `CC1(CNC(=O)c2ccc(C#Cc3ccccc3)cc2)NC(=O)NC1=O` (centres unmarked) [Compound 66], where the note is “read-out: IC50 rating”, the IC50 is above 5 µM.

Turning to `C#Cc1ccc(C2CCN(C(=O)CC3(C)NC(=O)NC3=O)CC2)cc1` (centres unmarked) [Compound 75], where the note is “read-out: IC50 rating”, the IC50 was above 5 µM.

For `CCc1ccc(C2CCN(C(=O)CC3(C)NC(=O)NC3=O)CC2)cc1` (centres unmarked) [Compound 76], under “read-out: IC50 rating”, the IC50 is above 5 µM.

`CC1(CC(=O)N2CCC(c3ccc(CCN4CCOCC4)cc3)CC2)NC(=O)NC1=O` (centres unmarked) [Compound 77]: for the setting “read-out: IC50 rating”, the IC50 is above 5 µM.

`CC1(CC(=O)N2CCC(c3ccc(-c4ccccc4)cc3)CC2)NC(=O)NC1=O` (centres unmarked) [Compound 78]: the IC50 (read-out: IC50 rating) is above 5 µM.

In the case of `CC1(CC(=O)N2CCC(c3ccc(-c4ccncc4)cc3)CC2)NC(=O)NC1=O` (centres unmarked) [Compound 79], the IC50 (read-out: IC50 rating) is above 5 µM.

A word on the IC50: it is the concentration needed to halve the response being measured.
